Data as given in US20240261417A1, “SOS1 DEGRADING AGENT AND PREPARATION METHOD THEREFOR AND APPLICATION THEREOF” (SHANGHAI LEADINGTAC PHARMACEUTICAL CO. LTD., priority 2021, published 2024).

Tests used:
KRAS-G12C/SOS1 = molecular target: T1, KRAS-G12C/SOS1 (Homo sapiens, UniProt Q07889); assay: KRAS-G12C/SOS1 binding assay (HTRF); settings: inhibition of KRAS-G12C/SOS1 binding
T1 construct: purchased Cisbio 63ADKOOOCB16PEG
T1 sequence (Q07889 1-1333): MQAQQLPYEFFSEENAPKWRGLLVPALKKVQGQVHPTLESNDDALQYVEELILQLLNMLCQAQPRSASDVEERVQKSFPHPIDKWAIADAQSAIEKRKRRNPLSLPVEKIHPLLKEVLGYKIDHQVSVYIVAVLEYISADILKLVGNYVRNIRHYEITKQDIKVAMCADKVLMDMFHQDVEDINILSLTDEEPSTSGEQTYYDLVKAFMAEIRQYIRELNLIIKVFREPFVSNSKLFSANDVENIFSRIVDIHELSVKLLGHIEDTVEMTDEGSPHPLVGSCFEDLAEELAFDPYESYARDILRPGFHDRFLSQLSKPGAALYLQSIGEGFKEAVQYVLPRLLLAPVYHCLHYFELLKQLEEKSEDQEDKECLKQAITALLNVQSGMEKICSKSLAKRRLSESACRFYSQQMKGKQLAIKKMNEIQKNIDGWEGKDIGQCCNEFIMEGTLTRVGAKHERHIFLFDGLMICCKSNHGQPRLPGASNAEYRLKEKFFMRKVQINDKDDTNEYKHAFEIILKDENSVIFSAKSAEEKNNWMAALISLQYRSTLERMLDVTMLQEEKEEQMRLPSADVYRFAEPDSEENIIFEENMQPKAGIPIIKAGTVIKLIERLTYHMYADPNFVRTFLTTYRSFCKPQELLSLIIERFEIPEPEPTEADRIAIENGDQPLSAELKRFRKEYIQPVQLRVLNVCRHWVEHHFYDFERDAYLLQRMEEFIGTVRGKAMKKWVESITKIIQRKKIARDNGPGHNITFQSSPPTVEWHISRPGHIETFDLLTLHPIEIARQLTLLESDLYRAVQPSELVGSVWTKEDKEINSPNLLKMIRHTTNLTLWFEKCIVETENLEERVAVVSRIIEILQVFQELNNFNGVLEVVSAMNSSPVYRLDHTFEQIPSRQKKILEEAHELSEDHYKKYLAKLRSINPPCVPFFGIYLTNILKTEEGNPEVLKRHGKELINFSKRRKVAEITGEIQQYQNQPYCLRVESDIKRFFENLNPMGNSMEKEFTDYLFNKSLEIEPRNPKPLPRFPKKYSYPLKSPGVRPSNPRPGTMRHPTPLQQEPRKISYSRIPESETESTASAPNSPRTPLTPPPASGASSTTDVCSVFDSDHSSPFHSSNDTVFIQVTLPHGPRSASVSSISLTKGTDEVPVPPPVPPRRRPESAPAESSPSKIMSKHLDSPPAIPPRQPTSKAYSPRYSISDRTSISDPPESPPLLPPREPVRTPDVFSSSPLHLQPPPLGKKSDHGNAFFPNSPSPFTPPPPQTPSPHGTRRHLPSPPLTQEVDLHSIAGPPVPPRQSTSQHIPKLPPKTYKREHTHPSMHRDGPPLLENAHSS
Description: The following method was used to determine the extent of inhibition of KRAS-G12C/SOS1 binding by the preferred compounds of the present invention under in vitro conditions. In this method, the competitive inhibition of KRAS-G12C/SOS1 binding by the preferred compounds was assayed by the homogeneous time-resolved fluorescence (HTRF) technology using the KRAS-G12C/SOS1 binding assay kit (Cisbio, 63ADKOOOCB16PEG).
The experimental procedures were as follows (refer to the kit instructions for details): the compounds of the present invention were each firstly dissolved in DMSO at a concentration of 20 mM, and then diluted in an equal gradient with a buffer in the kit, so that the final concentrations of the test compounds in the reaction system were in a range of 10000 nM-0.04 nM, and the final concentration of DMSO was 0.5%. 2 μL of the compounds were each incubated with 4 μL of 1×Tag1-SOS1, 4 μL of 1×Tag2-KRAS-G12C (containing 10 μM guanosine triphosphate, GTP) at 25° C. for 15 min. Then 5 μL of 1× Anti-Tag1-Tb3+ and 5 μL of 1× Anti-Tag2-XL665 were added to the reaction system, and the mixture was incubated on ice for 3 h. After the incubation, the fluorescence intensity of each well was measured at the excitation wavelength of 337 nm, the fluorescence intensity of each well was read at the emission wavelengths of 620 nm and 665 nm on a microplate reader EnVision (PerkinElmer, 2105) in an HTRF mode, and the Ratio value was calculated by the formula Ratio=(665 nm/620 nm)×[…]. The inhibition rates of the compounds at each concentration were calculated by comparing the fluorescence intensity ratio with that of the control group, and then nonlinear curve fitting was performed by GraphPad Prism 8 in the logarithmic concentration-inhibition rate to obtain the IC50 values of the compounds, as shown in Table 1.

SOS1 protein = molecular target: T2, SOS1 protein (Homo sapiens, UniProt Q07889); assay: SOS1 degradation assay (Western blot), NCI-H358 cells; assay type: cell-based; design: The degradation of SOS1 by the compounds was investigated on KRAS G12C mutant human non-small cell lung cancer cells NCI-H358; host or cells: NCI-H358 (human cancer cell lines); settings: SOS1 degradation, NCI-H358 cells, 24 h, Western blot; for DC50: read-out: NCI-H358 (G12C) DC50; for Dmax: read-out: NCI-H358 (G12C) Dmax
T2 sequence (Q07889 1-1333): T1 sequence (Q07889 1-1333)
Summary of the method: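 Cells at 5×10^5 per well were treated for 24 h at 37 °C with compound at 0.03–3000 nM final. SOS1 in lysates was measured by Western blot with chemiluminescent densitometry and normalised to the control group. DC50 and Dmax came from nonlinear fits against log concentration.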

| SMILES | IC50 (KRAS-G12C/SOS1) [nM] | DC50 (SOS1 protein) [nM] | Dmax (SOS1 protein) [%] |
| --- | --- | --- | --- |
| COc1cc2nc(C)nc(N[C@H](C)c3cc(-c4c(Cl)cccc4CN(C)C)cs3)c2cc1[C@H]1CC[C@H](C(=O)N2CCN(CCCOC3CCN(C(=O)c4ccc(Cl)c(N5CCC(=O)NC5=O)c4)CC3)CC2)CC1 [Example 68, 1-(2-chloro-5-(4-(3-(4-((1R,4R)-4-(4-(((R)-1-(4-(2-chloro-6-((dimethylamino)methyl)phenyl)thien-2-yl)ethyl)amino)-7-methoxy-2-methylquinazolin-6-yl)cyclohexane-1-carbonyl)piperazin-1-yl)propoxy)piperidine-1-carbonyl)phenyl)dihydropyrimidine-2,4(1H,3H)-dione] | ≤ 15 | < 50 | 50 to 80 |
| COc1cc2nc(C)nc(N[C@H](C)c3cc(N)cc(C(F)(F)F)c3)c2cc1[C@H]1CC[C@H](C(=O)N2CCN(CCN3CCC4(CC3)CCN(C(=O)c3ccc(Cl)c(N5CCC(=O)NC5=O)c3)CC4)CC2)CC1 [Example 3, 1-(5-(9-(2-(4-((1R,4R)-4-(4-(((R)-1-(3-amino-5-(trifluoromethyl)phenyl)ethyl)amino)-7-methoxy-2-methylquinazolin-6-yl)cyclohexane-1-carbonyl)piperazin-1-yl)ethyl)-3,9-diazaspiro[5.5]undecane-3-carbonyl)-2-chlorophenyl)dihydropyrimidine-2,4(1H,3H)-dione] | ≤ 15 | < 50 | 80 to 100 |
| COc1cc2nc(C)nc(N[C@H](C)c3cc(-c4c(Cl)cccc4CN(C)C)cs3)c2cc1[C@H]1CC[C@H](C(=O)N2CCN(CC3CCC4(CC3)CCN(C(=O)c3ccc(C5CCC(=O)NC5=O)cc3)CC4)CC2)CC1 (stereo partly drawn) [Example 52, 3-(4-(9-((4-((1R,4R)-4-(4-(((R)-1-(4-(2-chloro-6-((dimethylamino)methyl)phenyl)thien-2-yl)ethyl)amino)-7-methoxy-2-methylquinazolin-6-yl)cyclohexane-1-carbonyl)piperazin-1-yl)methyl)-3-azaspiro[5.5]undecane-3-carbonyl)phenyl)piperidine-2,6-dione] | ≤ 15 | 100 to 500 | 50 to 80 |
| COc1cc2nc(C)nc(N[C@H](C)c3cc(-c4c(Cl)cccc4CN(C)C)cs3)c2cc1[C@H]1CC[C@H](C(=O)N2CCC(COCCC3CCN(C(=O)c4ccc(Cl)c(N5CCC(=O)NC5=O)c4)CC3)CC2)CC1 [Example 70, 1-(2-chloro-5-(4-(2-((1-((1R,4R)-4-(4-(((R)-1-(4-(2-chloro-6-((dimethylamino)methyl)phenyl)thien-2-yl)ethyl)amino)-7-methoxy-2-methylquinazolin-6-yl)cyclohexane-1-carbonyl)piperidin-4-yl)methoxy)ethyl)piperidine-1-carbonyl)phenyl)dihydropyrimidine-2,4(1H,3H)-dione] | ≤ 15 | < 50 | 80 to 100 |
| Cc1nc(N[C@H](C)c2cc(N)cc(C(F)(F)F)c2)c2cc([C@H]3CC[C@H](C(=O)N4CCN(CC5CCC6(CC5)CCN(C(=O)c5ccc(Cl)c(N7CCC(=O)NC7=O)c5)CC6)CC4)CC3)c(C)cc2n1 [Example 72, 1-(5-(9-((4-((1R,4R)-4-(4-(((R)-1-(3-amino-5-(trifluoromethyl)phenyl)ethyl)amino)-2,7-dimethylquinazolin-6-yl)cyclohexane-1-carbonyl)piperazin-1-yl)methyl)-3-azaspiro[5.5]undecane-3-carbonyl)-2-chlorophenyl)dihydropyrimidine-2,4(1H,3H)-dione] | ≤ 15 | < 50 | 50 to 80 |
| COc1cc2nc(C)nc(N[C@H](C)c3cc(-c4c(Cl)cccc4CN(C)C)cs3)c2cc1[C@H]1CC[C@H](C(=O)N2CCN(CCCCC3CCN(C(=O)c4ccc(Cl)c(N5CCC(=O)NC5=O)c4)CC3)CC2)CC1 [Example 71, 1-(2-chloro-5-(4-(4-(4-((1R,4R)-4-(4-(((R)-1-(4-(2-chloro-6-((dimethylamino)methyl)phenyl)thien-2-yl)ethyl)amino)-7-methoxy-2-methylquinazolin-6-yl)cyclohexane-1-carbonyl)piperazin-1-yl)butyl)piperidine-1-carbonyl)phenyl)dihydropyrimidine-2,4(1H,3H)-dione] | ≤ 15 | < 50 | 80 to 100 |
| COc1cc2nc(C)nc(N[C@H](C)c3cc(-c4c(Cl)cccc4CN(C)C)cs3)c2cc1C1=CCC(C(=O)N2CCC(CCOCC3CCN(C(=O)c4ccc(Cl)c(C5CCC(=O)NC5=O)c4)CC3)CC2)CC1 (stereo partly drawn) [Example 46, 3-(2-chloro-5-(4-((2-(1-(4-(4-(((R)-1-(4-(2-chloro-6-((dimethylamino)methyl)phenyl)thien-2-yl)ethyl)amino)-7-methoxy-2-methylquinazolin-6-yl)cyclohex-3-ene-1-carbonyl)piperidin-4-yl)ethoxy)methyl)piperidine-1-carbonyl)phenyl)piperidine-2,6-dione] | ≤ 15 | < 50 | 50 to 80 |
| COc1cc2nc(C)nc(N[C@H](C)c3cc(N)cc(C(F)(F)F)c3)c2cc1[C@H]1CC[C@H](C(=O)N2CCN(CCCOC3CCN(C(=O)c4ccc(Cl)c(N5CCC(=O)NC5=O)c4)CC3)CC2)CC1 [Example 28, 1-(5-(4-(3-(4-((1R,4R)-4-(4-(((R)-1-(3-amino-5-(trifluoromethyl)phenyl)ethyl)amino)-7-methoxy-2-methylquinazolin-6-yl)cyclohexane-1-carbonyl)piperazin-1-yl)propoxy)piperidine-1-carbonyl)-2-chlorophenyl)dihydropyrimidine-2,4(1H,3H)-dione] | ≤ 15 | < 50 | 50 to 80 |
| COc1cc2nc(C)nc(N[C@H](C)c3cc(-c4c(Cl)cccc4CN(C)C)cs3)c2cc1[C@H]1CC[C@H](C(=O)N2CCN(CC3CCC4(CC3)CCN(C(=O)c3ccc(F)c(N5CCC(=O)NC5=O)c3)CC4)CC2)CC1 [Example 60, 1-(5-(9-((4-((1R,4R)-4-(4-(((R)-1-(4-(2-chloro-6-((dimethylamino)methyl)phenyl)thien-2-yl)ethyl)amino)-7-methoxy-2-methylquinazolin-6-yl)cyclohexane-1-carbonyl)piperazin-1-yl)methyl)-3-azaspiro[5.5]undecane-3-carbonyl)-2-fluorophenyl)dihydropyrimidine-2,4(1H,3H)-dione] | ≤ 15 | < 50 | 50 to 80 |
